One assay concerns HINF 30063. The experiment in a line: In vitro MIC by standard agar dilution method, HINF 30063. The assay is classed as cell-based, H. influenzae. As to conditions: Haemophilus influenzae, read-out: HINF 30063 MIC (Minimum Inhibitory Concentration). From the text:
(§1) The oxazolidinone antibacterial agents of this invention have useful activity against a variety of organisms. The in vitro activity of compounds of this invention can be assessed by standard testing procedures such as the determination of minimum inhibitory concentration (MIC) by agar dilution as described in “Approved Standard. Methods for Dilution Antimicrobial Susceptibility Tests for Bacteria That Grow Aerobically”, 3rd. ed., published 1993 by the National Committee for Clinical Laboratory Standards, Villanova, Pa., USA.
(§2) The in vitro MICs of test compounds were determined by a standard agar dilution method. A stock drug solution of each analog was prepared in the preferred solvent, usually DMSO: H2O (1:3). Serial 2-fold dilutions of each sample are made using 1.0 ml aliquots of sterile distilled water. To each 1.0 ml aliquot of drug was added 9 ml of molten Mueller Hinton agar medium. The drug-supplemented agar was mixed, poured into 15×100 mm petri dishes, and allowed to solidify and dry prior to inoculation.
(§3) Vials of each of the test organisms are maintained frozen in the vapor phase of a liquid nitrogen freezer. Test cultures are grown overnight at 35° C. on the medium appropriate for the organism. Colonies are harvested with a sterile swab, and cell suspensions are prepared in Trypticase Soy broth (TSB) to equal the turbidity of a 0.5 McFarland standard. A 1:20 dilution of each suspension was made in TSB. The plates containing the drug supplemented agar are inoculated with a 0.001 ml drop of the cell suspension using a Steers replicator, yielding approximately 10^4 to 10^5 cells per spot. The plates are incubated overnight at 35° C.
(§4) Following incubation the Minimum Inhibitory Concentration (MIC μg/ml), the lowest concentration of drug that inhibits visible growth of the organism, was read and recorded.

The test system of a further assay is SAUR 9213. The experiment in a line: In vitro MIC by standard agar dilution method, SAUR 9213. The assay is classed as cell-based, S. aureus. The conditions noted are these: Staphylococcus aureus, read-out: SAUR 9213 MIC (Minimum Inhibitory Concentration).
Source text: as §1, §2, §3, §4

The subject of the next assay is SPNE 9912. The experiment in a line: In vitro MIC by standard agar dilution method, SPNE 9912. As to conditions: read-out: SPNE 9912 MIC (Minimum Inhibitory Concentration). The assay is classed as cell-based.
Source text: as §1, §2, §3, §4
(In general: Agar dilution tests growth on a series of plates holding different concentrations.)

Setting [1] is: agar dilution, Mueller Hinton agar, incubated overnight at 35° C., lowest concentration that inhibits visible growth.

Values after ≈ are worked out from the molar mass of the structure shown. Read-outs that look alike come from different tables or passages of the source.

`CC(=O)NC[C@H]1CN(c2ccc(N3CCN(C(=O)CCC#Cc4ccc(N)cc4)CC3)c(F)c2)C(=O)O1` [Compound 20, N-{[(5S)-3-(4-{4-[5-(4-aminophenyl)pent-4-ynoyl]piperazin-1-yl}-3-fluorophenyl)-2-oxo-1,3-oxazolidin-5-yl]methyl}acetamide]: the MIC with HINF 30063 (setting [1]) turned out to be 64 µg/mL (≈ 126 µM); in the assay on SAUR 9213 (setting [1]), 4 µg/mL (≈ 7.88 µM); in the assay on SPNE 9912 (setting [1]) it was 2 µg/mL (≈ 3.94 µM).
Turning to `CCC(=O)NC[C@H]1CN(c2ccc(C3(C)CN(C(=O)CCCC#Cc4cccc(CN)c4)C3)cc2)C(=O)O1` [Compound 16, N-({(5S)-3-[4-(1-{6-[3-(aminomethyl)phenyl]hex-5-ynoyl}-3-methylazetidin-3-yl)phenyl]-2-oxo-1,3-oxazolidin-5-yl}methyl)propan-amide], the MIC was 16 µg/mL (≈ 31 µM) in the assay on HINF 30063 (setting [1]), 16 µg/mL (≈ 31 µM) in the assay on SAUR 9213 (setting [1]) and 2 µg/mL (≈ 3.87 µM) in the assay on SPNE 9912 (setting [1]).
With `CC(=O)NC[C@H]1CN(c2ccc(N3CCN(C(=O)CCCC#Cc4cccc(O)c4)CC3)c(F)c2)C(=O)O1` [Compound 27, N-{[(5S)-3-(3-fluoro-4-{4-[6-(3-hydroxyphenyl)hex-5-ynoyl]piperazin-1-yl}phenyl)-2-oxo-1,3-oxazolidin-5-yl]methyl}acetamide], the figures for the MIC in the assay with HINF 30063 (setting [1]), with SAUR 9213 (setting [1]) and with SPNE 9912 (setting [1]) were greater than 64 µg/mL, 8 µg/mL (≈ 15.3 µM) and 1 µg/mL (≈ 1.91 µM), respectively.
Consider `CNCc1ccc(C#CCCCC(=O)N2CCN(c3ccc(N4C[C@H](CNC(C)=O)OC4=O)cc3F)CC2)cc1` [Compound 19, N-[((5S)-3-{3-fluoro-4-[4-(6-{4-[(methylamino)methyl]phenyl}hex-5-ynoyl)piperazin-1-yl]phenyl}-2-oxo-1,3-oxazolidin-5-yl)methyl]acetamide], for which the MIC turned out to be 32 µg/mL (≈ 58.2 µM) in the assay on HINF 30063 (setting [1]), 4 µg/mL (≈ 7.28 µM) in the assay on SAUR 9213 (setting [1]) and 0.25 µg/mL (≈ 0.455 µM) with SPNE 9912 (setting [1]).
Take `CC(=O)NC[C@H]1CN(c2ccc(N3CCN(C(=O)CCCC#Cc4cccc(CN)c4)CC3)c(F)c2)C(=O)O1` [Compound 6, N-({(5S)-3-[4-(4-{6-[3-(aminomethyl)phenyl]hex-5-ynoyl}piperazin-1-yl)-3-fluorophen-yl]-2-oxo-1,3-oxazolidin-5-yl}methyl)acetamide]: the MIC in the assay with HINF 30063 (setting [1]) amounted to 16 µg/mL (≈ 29.9 µM); with SAUR 9213 (setting [1]), 2 µg/mL (≈ 3.73 µM); with SPNE 9912 (setting [1]), 1 µg/mL (≈ 1.87 µM).
On to `CC(=O)NC[C@H]1CN(c2ccc(N3CCN(C(=O)CCCCC#Cc4ccc(O)cc4)CC3)c(F)c2)C(=O)O1` [Compound 24, N-{[(5S)-3-(3-fluoro-4-{4-[7-(4-hydroxyphenyl)hept-6-ynoyl]piperazin-1-yl}phenyl)-2-oxo-1,3-oxazolidin-5-yl]methyl}acetamide], for which the values for the MIC in the assay with HINF 30063 (setting [1]), in the assay with SAUR 9213 (setting [1]) and with SPNE 9912 (setting [1]) were greater than 64 µg/mL, 8 µg/mL (≈ 14.9 µM) and 2 µg/mL (≈ 3.73 µM), respectively.
The matching figures for `CC(=O)NC[C@H]1CN(c2ccc(N3CCN(C(=O)CCCCC#Cc4ccc(CN)cc4)CC3)c(F)c2)C(=O)O1` [Compound 23, N-({(5S)-3-[4-(4-{7-[4-(aminomethyl)phenyl]hept-6-ynoyl}piperazin-1-yl)-3-fluorophenyl]-2-oxo-1,3-oxazolidin-5-yl}methyl)acetamide]: 32 µg/mL (≈ 58.2 µM), 4 µg/mL (≈ 7.28 µM) and 0.25 µg/mL (≈ 0.455 µM).
With `C#CCCCC(=O)N1CCN(c2ccc(N3C[C@H](CNC(C)=O)OC3=O)cc2F)CC1` [Compound 4, N-({(5S)-3-[3-Fluoro-4-(4-hex-5-ynoylpiperazin-1-yl)phenyl]-2-oxo-1,3-oxazolidin-5-yl}methyl)acetamide], the MIC in the assay on HINF 30063 was 64 µg/mL (≈ 149 µM); in the assay with SAUR 9213 it was 4 µg/mL (≈ 9.29 µM); in the assay on SPNE 9912 it was 1 µg/mL (≈ 2.32 µM).
Turning to `COC(=O)[C@@H](N)Cc1ccc(C#CCCC(=O)N2CCN(c3ccc(N4C[C@H](CNC(C)=O)OC4=O)cc3F)CC2)cc1` [Compound 21, methyl 4-{5-[4-(4-{(5S)-5-[(acetylamino)methyl]-2-oxo-1,3-oxazolidin-3-yl}-2-fluorophenyl)piperazin-1-yl]-5-oxopent-1-ynyl}-L-phenylalaninate], the figures for the MIC in the assay on HINF 30063 (setting [1]), in the assay on SAUR 9213 (setting [1]) and in the assay on SPNE 9912 (setting [1]) were greater than 64 µg/mL, 32 µg/mL (≈ 53.9 µM) and 4 µg/mL (≈ 6.74 µM), respectively.

These data come from US20040204463A1, “N-aryl-2-oxazolidinone-5-carboxamides and their derivatives” (priority 2003, published 2004).
